# Test results published in the supplement of paper PMC10307832.
# Columns and labels:
# Assay in all cases: relative viability (nuclei count vs DMSO), 5 days (fraction); higher = more cells survive
# [1] = compound: Cn1cncc1[C@@](N)(c1ccc(Cl)cc1)c1ccc2c(c1)c(-c1cccc(Cl)c1)cc(=O)n2C [Tipifarnib] + CCNC(=O)c1noc(-c2cc(C(C)C)c(O)cc2O)c1-c1ccc(CN2CCOCC2)cc1 [Luminespib] (partner 0.01 µM)
# Method in brief: (§1)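 Medians of duplicate plates are given as relative viability. That measure is the nuclei count in treated wells divided by the count in vehicle wells. Counts were taken on 4× images of lung cancer cell lines in 1536-well plates, 5 days after pin-tool dosing the day after seeding with one drug alone or a fixed anchor-drug dose plus five library-drug doses (not always all listed) in √10 steps.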
# [2] = compound: Cn1cncc1[C@@](N)(c1ccc(Cl)cc1)c1ccc2c(c1)c(-c1cccc(Cl)c1)cc(=O)n2C [Tipifarnib] + Nc1ncn([C@H]2C[C@H](O)[C@@H](CO)O2)c(=O)n1 [Decitabine] (partner 2 µM)
# Method in brief: as §1
# [3] = compound: Cn1cncc1[C@@](N)(c1ccc(Cl)cc1)c1ccc2c(c1)c(-c1cccc(Cl)c1)cc(=O)n2C [Tipifarnib] + O=C(c1cc(Cc2n[nH]c(=O)c3ccccc23)ccc1F)N1CCN(C(=O)C2CC2)CC1 [Olaparib] (partner 8 µM)
# Method in brief: as §1
# [4] = compound: Cn1cncc1[C@@](N)(c1ccc(Cl)cc1)c1ccc2c(c1)c(-c1cccc(Cl)c1)cc(=O)n2C [Tipifarnib] + CS(=O)(=O)CCNCc1ccc(-c2ccc3ncnc(Nc4ccc(OCc5cccc(F)c5)c(Cl)c4)c3c2)o1 [Lapatinib] (partner 2 µM)
# Method in brief: as §1
Cell Line,relative viability ([1]; first compound 0.01 µM),relative viability ([1]; first compound 0.03162 µM),relative viability ([1]; first compound 0.1 µM),relative viability ([1]; first compound 0.3162 µM),relative viability ([1]; first compound 1 µM),relative viability ([2]; first compound 0.01 µM),relative viability ([2]; first compound 0.03162 µM),relative viability ([2]; first compound 0.1 µM),relative viability ([2]; first compound 0.3162 µM),relative viability ([2]; first compound 1 µM),relative viability ([3]; first compound 0.01 µM),relative viability ([3]; first compound 0.03162 µM),relative viability ([3]; first compound 0.1 µM),relative viability ([3]; first compound 0.3162 µM),relative viability ([3]; first compound 1 µM),relative viability ([4]; first compound 0.01 µM),relative viability ([4]; first compound 0.03162 µM),relative viability ([4]; first compound 0.1 µM),relative viability ([4]; first compound 0.3162 µM),relative viability ([4]; first compound 1 µM)
NCI-H441,0.39,0.355,0.242,0.315,0.267,0.217,0.241,0.237,0.204,0.183,0.651,0.39,0.523,0.306,0.277,,,,,
NCI-H1793,0.23,0.173,0.196,0.134,0.138,0.555,0.427,0.374,0.338,0.365,0.875,0.718,0.809,0.695,0.608,0.882,0.691,0.742,0.381,0.52
NCI-H23,0.243,0.242,0.223,0.199,0.24,0.333,0.349,0.307,0.266,0.281,0.318,0.241,0.33,0.266,0.21,1.4,0.949,0.717,0.439,0.23
HARA,0.694,0.682,0.526,0.522,0.221,0.758,0.593,0.515,0.625,0.435,0.842,0.865,0.762,0.996,0.76,0.737,0.682,0.735,0.664,0.332
NCI-H1792,0.505,0.329,0.379,0.268,0.262,0.446,0.439,0.308,0.28,0.272,0.301,0.279,0.208,0.169,0.122,0.942,0.941,0.782,0.574,0.298
NCI-H1703,,,,,,,,,,,0.427,0.266,0.16,0.176,0.17,0.78,0.706,0.253,0.319,0.417
NCI-H2342,0.689,0.669,0.635,0.569,0.51,0.778,0.782,0.683,0.555,0.557,0.536,0.463,0.425,0.371,0.396,,,,,
CAL-12T,0.284,0.335,0.267,0.151,0.15,,,,,,0.717,0.587,0.527,0.455,0.465,0.709,0.716,0.619,0.525,0.393
NCI-H727,0.341,0.401,0.533,0.462,0.432,0.862,0.811,0.855,0.765,0.851,0.702,0.685,0.866,0.802,0.901,1.01,0.843,0.755,0.578,0.607
NCI-H2085,0.406,0.317,0.34,0.295,0.34,0.558,0.59,0.519,0.493,0.536,0.823,0.758,0.613,0.513,0.7,0.846,0.659,0.633,0.523,0.533
NCI-H1395,0.776,0.72,0.711,0.446,0.452,0.7,0.674,0.59,0.626,0.654,0.444,0.5,0.454,0.421,0.473,1.03,0.85,0.82,0.68,0.48
NCI-H1648,,,,,,0.603,0.48,0.608,0.51,0.338,0.868,0.757,0.572,0.533,0.456,,,,,
NCI-H460,0.0293,0.0319,0.0244,0.0236,0.0186,0.479,0.33,0.283,0.15,0.0821,0.462,0.369,0.219,0.207,0.208,0.987,0.431,0.285,0.195,0.0315
A549,,,,,,0.243,0.32,0.143,0.124,0.0674,0.265,0.276,0.245,0.219,0.109,1.09,0.793,0.643,0.439,0.302
IA-LM,,,,,,,,,,,0.494,0.504,0.485,0.256,0.404,0.295,0.192,0.215,0.144,0.156
EKVX,0.95,0.856,0.41,0.776,0.496,0.299,0.34,0.261,0.289,0.275,0.881,0.829,0.682,0.586,0.521,0.202,0.21,0.185,0.189,0.17
ChaGo-K-1,0.669,0.558,0.454,0.505,0.389,0.542,0.535,0.549,0.483,0.465,0.455,0.406,0.459,0.419,0.373,,,,,
NCI-H1755,0.516,0.475,0.516,0.545,0.201,0.726,0.761,0.739,0.746,0.741,0.869,0.86,0.875,0.891,0.898,1.03,0.988,0.981,0.906,0.507
NCI-H2228,0.126,0.126,0.165,0.145,0.157,,,,,,0.84,0.523,0.471,0.386,0.478,1.02,0.705,0.782,0.444,0.315
